Assays:
[1] = test system: CDK2; test: CDK2 phosphorylation by Western blotting; type: cell-based, human; conditions: FIG. 6, HCT-116 cells
Description: One of 4 representative Western blots is shown.

[2] = test system: HCT-116 cells; test: Cell cycle distribution (BrdU/PI flow cytometry); type: cell-based, human; conditions: FIG. 5; increasing concentrations, 24 hours
Experimental: For analysis of cell cycle distribution, serum-starved cells were cultured in medium containing 0.05% BSA and the desiderated concentrations of compound 14 for 24 hours. Cells were pulsed with 10 μM BrdU for 60 minutes, then collected, washed twice with PBS 1×, fixed in 70% cold ethanol, and stored at −20° C. for at least 3 hours. Afterwards, cells were washed twice with PBS 1×, denatured in 2M HCl and stained with anti-BrdU monoclonal antibody (Immunotech, Marseille, France) followed by FITC-conjugated secondary anti-mouse IgG (Molecular Probes/Invitrogen, Milan, Italy). After staining with 100 μg/ml PI, cells were analyzed by flow cytometry. […] HCT-116 cells were treated with or without compound 14 for 24 hours. Values in FIG. 5 are the percentages of cells in the different phases of cell cycle and indicate mean±SD of 4 experiments (untreated vs compound 14-treated cells * P<0.04, ** P<0.001). Right insets show representative dot-plots of the cell cycle distribution.

[3] = test system: HT-29 cells; test: CFSE cell proliferation assay, HT-29 cells; type: cell-based, human; conditions: FIG. 2; graded doses
Experimental: All reagents used in Examples 1-3 were from Sigma-Aldrich (Milan, Italy) unless specified. Compounds were dissolved as a 25 mM stock solution in culture medium, and the pH of the solution was adjusted to 7.4, if necessary, with NaOH. The human CRC cell lines, HCT-116 and HT-29 (expressing either wild-type or mutated p53 respectively), were maintained in McCoy's 5A supplemented with 10% fetal bovine serum (FBS), 1% penicillin/streptomycin, and 50 μg/ml gentamycin. The murine CRC cell line, CT26, was maintained in RPMI 1640 medium supplemented with 10% FBS and 1% penicillin/streptomycin.
For cell growth assays, serum-starved HCT-116, HT-29, and CT26 cells were plated in appropriate complete medium at 2×10^5 cells/ml/well in 6-well culture dishes and allowed to adhere overnight. Cells were then labeled with carboxyfluorescein diacetate succinimidyl ester (CFSE) (Invitrogen, Milan Italy) at 37° C. according to the manufacturer's instruction. After 30 minutes, the medium was removed and fresh media containing 0.05% bovine serum albumin (BSA), and increasing doses of 5-ASA or disclosed compounds were added. […] CFSE and/or PI-positive cells were determined by flow cytometry (Becton Dickinson, FACSCalibur, Milan, Italy). […] The percentage of proliferating cells was then evaluated by flow cytometry.

[4] = test system: CT26-derived tumors; test: In vivo formation of CT26-derived tumors; parameters: species or system Balb/c mice; conditions: for mice with CT26-derived macroscopic tumors: fourteen days after injection (control 10/10)
Experimental: CT26 cells (1×10^5 cells in 300 μl PBS 1×) were injected subcutaneously into the flank of Balb/c mice, whose fur was shaved and depilated. Five groups of 10 mice each were implanted with CT26. The first group received daily subcutaneously 300 μl PBS (control), the remaining groups received daily subcutaneously compound 14 at a final dose of 1, 4, 8, or 12 mg/kg/mouse dissolved in 300 μl PBS. Both compound 14 and PBS were administered starting on day 3. Further experimentation was performed to assess whether compound 14 had anti-cancer activity when administered systemically. To this end, 3 days after the CT26 inoculation, mice were injected with PBS or compound 14 (8 mg/kg/mouse) intraperitoneally. As a control, mice received subcutaneously compound 14 (8 mg/kg/mouse). Mice were monitored over the time for weight loss. After 2 weeks, mice were sacrificed, tumors were photographed, then excised and their mass calculated according to the following formula: ½×(short diameter)×(long diameter)×(height). Total extracts were prepared from xenografts and analyzed for cyclin D1 protein content by Western blotting using a commercially available antibody (Santa Cruz Biotechnology). To examine whether compound 14 was able to reduce the growth of established CRC xenografts, Balb/c mice were implanted with CT26 as described above. After 2 weeks, mice with similar tumor size, determined by caliper measurements, were divided into three groups of 8 mice each. The first group received daily subcutaneously 300 μl PBS (control), the second group received daily subcutaneously 5-ASA (80 mg/kg) dissolved in 300 μl PBS. The last group received daily subcutaneously compound 14 (8 mg/kg) dissolved in 300 μl PBS. Mice were monitored over the time for weight loss. After 2 weeks, mice were sacrificed, tumors were photographed, then excised and their mass calculated as described above. Studies were approved by the Local Ethical Committee.

COc1ccc(N)cc1C(=O)NO [compound 14, 2-methoxy-5-amino-N-hydroxybenzamide]
CDK2 phosphorylation on threonin 14 and tyrosine 15 [1]: enhanced phosphorylation
cells in G0/G1 phase [2]: progressive accumulation
cells with S and G2/M phase DNA content [2]: decrease
proliferation of HT-29 cells [3]: dose-dependently inhibited
in-vivo formation of CT26-derived tumors ([4]; FIG. 7A, daily subcutaneously 1, 4, 8, or 12 mg/kg/mouse): dose-dependently reduces
CT26-derived xenografts ([4]; FIG. 7B, intra-peritoneally 8 mg/kg/mouse): inhibits
cyclin D1 protein expression in xenografts ([4]; FIG. 7C, Western blotting, two different doses): reduced
body weight loss ([4]; during the study, treated groups): No body weight loss
tumor mass in comparison to controls ([4]; given subcutaneously or intraperitoneally): significant decrease
mice with CT26-derived macroscopic tumors ([4]; intraperitoneally): 7/10
histological analysis of liver, kidney, spleen, and colon ([4]; mice receiving compound): no morphological alteration
survival ([4]; mouse, in vivo): all animals survived
mice with CT26-derived macroscopic tumors ([4]; subcutaneously): 5/10
